Data set [1] deals with Hep2 (human laryngeal carcinoma). Kind of data set: MTT cytotoxicity assay, Hep2. Conditions: Hep2 cell line. The data set is classed as cell-based. The procedure: (§1) Compounds II-7-II-9, II-13, II-14, II-20, II-21, II-25-II-33, and II-36 were assayed for cytotoxic activity against Doay (human medulloblastoma), Hep2 (human laryngeal carcinoma), MCF-7 (human breast adenocarcinoma), and Hela (human cervical epitheloid carcinoma) cell lines, using a MTT assay method.
On the technique in general: Tetrazolium assays rely on reduction of a dye to a coloured formazan, in cell work by metabolically active cells.

The subject of data set [2] is Hela (human cervical epitheloid carcinoma). In words: MTT cytotoxicity assay, Hela. The data set is classed as cell-based. Conditions: Hela cell line. The method, then:
as §1

Data set [3] relates to MCF-7 (human breast adenocarcinoma). In words: MTT cytotoxicity assay, MCF-7. The data set is classed as cell-based. Conditions: MCF-7 cell line. The procedure:
as §1

Data set [4] deals with Daoy (human medulloblastoma). Kind of data set: MTT cytotoxicity assay, Daoy. In kind it is cell-based. The settings on record: Daoy cell line. The method, then: as §1
Data set [5] deals with KB-VIN (multidrug-resistant strain). In words: Cytotoxicity assay against KB-VIN cells in vitro. In kind it is cell-based, human.
Data set [6] concerns the target T1, nitric oxide synthase (NOS) (Mus musculus, UniProt P29477).
T1 sequence (P29477 1-1144): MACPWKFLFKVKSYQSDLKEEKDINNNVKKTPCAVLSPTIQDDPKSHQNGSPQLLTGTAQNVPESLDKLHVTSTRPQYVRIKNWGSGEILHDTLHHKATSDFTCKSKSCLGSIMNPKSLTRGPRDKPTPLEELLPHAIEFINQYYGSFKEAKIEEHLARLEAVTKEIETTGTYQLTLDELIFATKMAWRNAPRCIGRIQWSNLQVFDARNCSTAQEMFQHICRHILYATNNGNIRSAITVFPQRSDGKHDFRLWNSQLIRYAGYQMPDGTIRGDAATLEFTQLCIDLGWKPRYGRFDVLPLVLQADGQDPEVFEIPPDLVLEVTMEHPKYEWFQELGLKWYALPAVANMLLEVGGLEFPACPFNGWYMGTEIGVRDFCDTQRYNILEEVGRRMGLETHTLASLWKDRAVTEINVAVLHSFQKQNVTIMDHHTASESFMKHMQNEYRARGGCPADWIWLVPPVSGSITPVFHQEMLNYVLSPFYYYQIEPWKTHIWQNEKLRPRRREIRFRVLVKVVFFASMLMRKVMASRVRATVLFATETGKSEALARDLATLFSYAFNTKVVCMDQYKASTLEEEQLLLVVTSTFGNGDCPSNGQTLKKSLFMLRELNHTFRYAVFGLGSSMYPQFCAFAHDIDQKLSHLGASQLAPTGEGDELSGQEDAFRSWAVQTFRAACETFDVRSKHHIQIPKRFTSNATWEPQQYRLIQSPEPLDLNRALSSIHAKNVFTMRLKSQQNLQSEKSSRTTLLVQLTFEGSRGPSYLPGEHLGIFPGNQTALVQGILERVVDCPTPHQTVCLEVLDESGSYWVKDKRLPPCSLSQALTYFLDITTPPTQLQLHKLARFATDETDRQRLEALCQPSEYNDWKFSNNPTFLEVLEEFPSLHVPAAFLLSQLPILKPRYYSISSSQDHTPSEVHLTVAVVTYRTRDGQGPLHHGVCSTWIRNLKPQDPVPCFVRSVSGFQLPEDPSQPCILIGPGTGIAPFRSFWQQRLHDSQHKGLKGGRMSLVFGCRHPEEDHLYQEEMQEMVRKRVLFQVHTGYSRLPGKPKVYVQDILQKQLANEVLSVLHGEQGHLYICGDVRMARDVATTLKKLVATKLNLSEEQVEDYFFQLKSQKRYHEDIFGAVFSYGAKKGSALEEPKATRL
In words: NOS activity: LPS-induced NO production in murine microglial cells (BV2).
Experimental: Microglial cell culture and measurements of mitric oxide (NO). The murine microglial cell line (BV2) was cultured, and the production of NO was measured by the methods as previously described (Wang, Y. H.; Wang, W. Y.; Chang, C. C.; Liou, K. T.; Sung, Y. J.; Liao, J. F.; Chen, C. F.; Chang, S.; Hou, Y. C.; Chou, Y. C.; Shen, Y. C. J. Biomed. Sci. 2006, 13, 127-141).

The subject of a further data set is KB (human cancer cell). Kind of data set: Cytotoxicity assay against KB cells in vitro. In kind it is cell-based. The settings on record: NA@20 given for inactive.
Data set [7] concerns the target NADPH oxidase (NOX) (Mus musculus, UniProt Q61093). The data set is classed as biochemical, murine. Conditions: ROS production triggered with NADPH (200 μM), 1-50 μM test drug, BV2 cell lysate; mean ± S.E.M., 3-6 experiments; read-out: IC50 (μM) in NOX activity from BV2 cell lysate.
For data set [8], the target named is NADPH oxidase (NOX) (Homo sapiens, UniProt P04839). In kind it is cell-based. Conditions: ROS production triggered with fMLP (2 μM), 1-50 μM test drug, peripheral human neutrophils; mean ± S.E.M.; read-out: IC50 (μM) in NOX fMLP-induced NOX activation in PMN.
The test system of data set [9] is P-388 murine leukemia cells. Conditions: in vitro, previous studies; cited from earlier work.
Where [10] appears, read: read-out: IC50 (μM) in NOS, LPS-induced NO production in BV2 cells, 1-50 μM test drug, mean ± S.E.M.

The source of these data is patent US20140066498A1, “TRITERPENOID DERIVATIVES, BENZENOID DERIVATIVES, AND PHARMACEUTICAL COMPOSITIONS CONTAINING THE SAME” (National Cheng Kung University, priority 2010, published 2014).

≈ marks a conversion by molar mass, not a printed value. Where two headings read alike, the source gives them in different places.

Broadly, the melting point is the temperature of the solid-liquid transition. What is called IC50 is the point on the concentration scale where inhibition reaches its midpoint. Take `C=C(CC[C@@H](C)[C@H]1CC[C@@H]2C3=C(C(=O)C[C@@]21C)[C@@]1(C)CCC(=O)[C@@H](C)C1CC3)C(C)C(=O)OC` (stereo partly drawn) [Compound I-10, methyl-3,11-dioxo-4α-methyl-14β-ergosta-8,24(28)-dien-26-oate]: the melting point is 100 to 102 °C. Further, in data set [1], the “ED50 (μg/mL) Hep2” value is listed as “— (ED50 > 20 μg/mL)”. The “ED50 (μg/mL) Hela” value in data set [2] was found to be 11.3 µg/mL (≈ 24.1 µM). The “ED50 (μg/mL) MCF-7” value in [3] worked out at 8.7 µg/mL (≈ 18.6 µM). Also, in [4], the “ED50 (μg/mL) Daoy” value was “—^a (ED50 > 20 μg/mL)”. For the same compound, the “EC50 (μM) KB-VIN” value in data set [5] is “NA@20”. Besides, the IC50 in [6] worked out at 1.6 µM. In the data set with KB (human cancer cell), the “EC50 (μM) KB” value was “NA@20”.

The EC50 is the concentration that produces a half-maximal response. Read a low EC50 as greater potency. `C=C(CC[C@@H](C)[C@H]1CC[C@H]2C3=C(C(=O)[C@H](O)[C@]12C)[C@@]1(C)CC[C@@H](O)[C@@H](C)[C@@H]1CC3=O)C(C)C(=O)O` (stereo partly drawn) [Compound I-13, zhankuic acid C]: the EC50 in data set [5] came out at 6.4 µM; in the data set with KB (human cancer cell) it was 15.5 µM. Also, the IC50 at NADPH oxidase (NOX) [7] came out at 40.3 ± 3.5 µM; in data set [6] (setting [10]), 16.2 ± 0.9 µM.

Regarding `C=C(CC[C@@H](C)[C@H]1CC[C@H]2C3=C(C(=O)C[C@]12C)[C@@]1(C)CCC(=O)[C@@H](C)[C@@H]1CC3)C(C)C(=O)O` (stereo partly drawn) [Compound I-15, antcin A], the “ED50 (μg/mL) Hep2” value in [1] was “— (ED50 > 20 μg/mL)”. Further, the values for the IC50 (on NADPH oxidase (NOX) [8]; on NADPH oxidase (NOX) [7]; in [6] (setting [10])) were 29.2 ± 6.7 µM, 45.9 ± 7.9 µM and 4.1 ± 0.5 µM, respectively. Besides, the “ED50 (μg/mL) Hela” value in data set [2] was “— (ED50 > 20 μg/mL)”. In data set [3], the “ED50 (μg/mL) MCF-7” value came to 13.3 µg/mL (≈ 29.3 µM). In addition, the “ED50 (μg/mL) Daoy” value in data set [4] is 13.2 µg/mL (≈ 29 µM). Besides, the EC50 in data set [5] was determined as 10 µM; with KB (human cancer cell) it was 4.9 µM.

As for `c1ccc2c(c1)[I+]c1ccccc1-2` [DPI, Diphenyleneiodonium, reference compound], the IC50 at NADPH oxidase (NOX) [7] turned out to be 0.4 µM.

Regarding `C=C(C)C#Cc1c(OC)cc(OC)c(OC)c1C` [II-9, antrocamphin A], the “ED50 (μg/mL) Hep2” value in data set [1] amounted to 10.5 µg/mL (≈ 42.6 µM). Moreover, the values for the IC50 (at NADPH oxidase (NOX) [8]; at NADPH oxidase (NOX) [7]; in data set [6] (setting [10])) were 15.1 ± 4.1 µM, 50.1 ± 3.3 µM and 7.2 ± 1 µM, respectively. For the same compound, the “ED50 (μg/mL) Hela” value in [2] was 6.9 µg/mL (≈ 28 µM). The “ED50 (μg/mL) MCF-7” value in data set [3] was 3.4 µg/mL (≈ 13.8 µM). Besides, the “ED50 (μg/mL) Daoy” value in data set [4] turned out to be 5.9 µg/mL (≈ 24 µM).

On to `C=C(CC[C@@H](C)[C@H]1CC[C@H]2C3=C(C(=O)C[C@]12C)[C@@]1(C)CCC(=O)[C@@H](C)[C@@H]1CC3=O)C(C)C(=O)O` (stereo partly drawn) [zhankuic acid A], for which the “cytotoxicity against P-388 murine leukemia cells” value in data set [9] was “significant cytotoxicity”.

With `C=C(CC[C@@H](C)[C@H]1CC[C@H]2C3=C(C(=O)[C@H](O)[C@]12C)[C@@]1(C)CC[C@@H](O)[C@@H](C)[C@@H]1CC3=O)C(C)C(=O)O` (stereo partly drawn) [zhankuic acid C], the “cytotoxicity against P-388 murine leukemia cells” value in data set [9] is recorded as “significant cytotoxicity”.

Turning to methyl antcinate H [Compound I-18], the IC50 on NADPH oxidase (NOX) [8] was found to be 18.1 ± 5.9 µM; on NADPH oxidase (NOX) [7] it was 16 ± 8.1 µM; in data set [6] (setting [10]), 2.5 µM. Also, in [5], the “EC50 (μM) KB-VIN” value is “NA@20”. For the same compound, the “EC50 (μM) KB” value with KB (human cancer cell) was “NA@20”.
